In general, IC50 refers to the concentration that inhibits the measured activity by half. Higher therefore signals weaker potency in that assay.

Values joined by “and” are separate entries in the source; they are usually repeats but may differ in a detail not shown here. Equal values may be shown once. “Also recorded” adds a separate entry of the source. Read-outs that look alike come from different tables or passages of the source.

Consider 2 molecules from article PMC12010950, “Discover the Power of Lithospermic Acid as Human Carbonic Anhydrase VA and Pancreatic Lipase Inhibitor Through In Silico and In Vitro Studies” (Archiv Der Pharmazie, 2025).

Assay [1] deals with T1, PL (pancreatic lipase) from porcine pancreas (Sus scrofa, UniProt P00591).
T1 sequence (P00591 1-450): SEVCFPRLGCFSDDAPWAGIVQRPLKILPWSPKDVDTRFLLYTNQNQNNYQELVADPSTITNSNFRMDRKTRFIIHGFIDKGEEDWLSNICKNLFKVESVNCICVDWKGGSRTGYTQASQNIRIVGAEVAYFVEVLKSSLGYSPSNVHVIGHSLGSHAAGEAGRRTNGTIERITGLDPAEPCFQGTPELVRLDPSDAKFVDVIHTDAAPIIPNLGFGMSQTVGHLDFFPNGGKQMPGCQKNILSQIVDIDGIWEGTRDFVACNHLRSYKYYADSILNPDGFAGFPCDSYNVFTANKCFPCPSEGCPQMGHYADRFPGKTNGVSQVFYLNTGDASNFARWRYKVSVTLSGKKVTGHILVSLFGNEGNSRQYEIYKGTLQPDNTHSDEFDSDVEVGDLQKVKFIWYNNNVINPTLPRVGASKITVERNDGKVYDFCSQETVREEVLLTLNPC
The settings on record: cited from earlier work.

Assay [2] addresses T2, hCA VA (Homo sapiens, UniProt P35218).
T2 construct: made in house
Description: Stopped-flow CO2 hydrase assay. In kind it is biochemical. The settings on record: mean from 3 assays, read-out: K i hCA VA. The procedure: (§1) An Applied Photophysics stopped‐flow instrument was used to assay the CA‐catalyzed CO2 hydration activity. […] The uncatalyzed rates were determined in the same manner and subtracted from the total observed rates. Stock solutions of the inhibitor (0.1 mM) were prepared in distilled−deionized water, and dilutions up to 0.01 nM were done thereafter with the assay buffer. Inhibitor and enzyme solutions were preincubated together for 15 min at room temperature before the assay, to allow for the formation of the E − I complex. The inhibition constants were obtained by nonlinear least‐squares methods using PRISM 3 and the Cheng–Prusoff equation as reported earlier and represent the mean from at least three different determinations. All CA isoforms were recombinant proteins obtained in house, as reported earlier.

The target in assay [3] is T3, hCA II (Homo sapiens, UniProt P00918).
T3 construct: made in house
Description: Stopped-flow CO2 hydrase assay. In kind it is biochemical. The conditions noted are these: mean from 3 assays, read-out: K i hCA II. The procedure: as §1

Assay [4] concerns the target T4, hCA I (Homo sapiens, UniProt P00915).
T4 construct: made in house
Kind of assay: Stopped-flow CO2 hydrase assay. The conditions noted are these: mean from 3 assays, read-out: K i hCA I. It counts as biochemical. The procedure: as §1

Assay [5] concerns the target T5, hCA XII (Homo sapiens, UniProt O43570).
T5 construct: made in house
Description: Stopped-flow CO2 hydrase assay. In kind it is biochemical. The conditions noted are these: mean from 3 assays, read-out: K i hCA XII. The procedure: as §1

The subject of assay [6] is hCA VB. Kind of assay: Stopped-flow CO2 hydrase assay. It counts as biochemical, human. The settings on record: K i VA / K i VB. The procedure: as §1
Assay [7] addresses T1, PL (pancreatic lipase) from porcine pancreas. Kind of assay: Kinetics of PL inhibition (Lineweaver-Burk plots). In kind it is biochemical. The procedure: The inhibition of PL by LTS0059529 on PL was also determined using Lineweaver–Burk graphs, which plot the reciprocal of initial velocity (v 0 ) against the reciprocal of substrate concentration.
The mode of inhibition of PL in the presence of LTS0059529 was determined by elaboration of UV‐vis spectroscopic data with Lineweaver–Burk plots. […] The competitive inhibition constants K i was calculated from the following equation. (2) v0=vmaxS/Km1+I/Ki+S, where ν 0 is the initial velocity in the absence and presence of the inhibitor, S and I are the concentrations of substrate and inhibitor, respectively; ν max is the maximum velocity, K m is the Michaelis–Menten constant. The replot of slopes (K m/ν max) from Lineweaver–Burk plot versus the inhibitor concentration afforded K i value as well.

The target in assay [8] is T6, hCA VII (Homo sapiens, UniProt Q9Y2D0).
T6 construct: made in house
Kind of assay: Stopped-flow CO2 hydrase assay (supplement table column). It counts as biochemical. The procedure: An Applied Photophysics stopped‐flow instrument was used to assay the CA‐catalyzed CO2 hydration activity. Phenol red (at a concentration of 0.2 mM) was used as an indicator, working at the absorbance maximum of 557 nm, with 20 mM Hepes (pH 7.4) as a buffer, and 20 mM Na2SO4 (to maintain constant ionic strength), following the initial rates of the CA‐catalyzed CO2 hydration reaction for a period of 10 − 100 s. The CO2 concentrations ranged from 1.7 to 17 mM for the determination of the kinetic parameters and inhibition constants. Enzyme concentrations ranged between 5 and 12 nM. For each inhibitor, at least six traces of the initial 5%−10% of the reaction were used to determine the initial velocity. The uncatalyzed rates were determined in the same manner and subtracted from the total observed rates. Stock solutions of the inhibitor (0.1 mM) were prepared in distilled−deionized water, and dilutions up to 0.01 nM were done thereafter with the assay buffer. Inhibitor and enzyme solutions were preincubated together for 15 min at room temperature before the assay, to allow for the formation of the E − I complex. The inhibition constants were obtained by nonlinear least‐squares methods using PRISM 3 and the Cheng–Prusoff equation as reported earlier and represent the mean from at least three different determinations. […]

The target of assay [9] is T1, PL (pancreatic lipase) from porcine pancreas. Description: Pancreatic lipase inhibition, spectrophotometric p-nitrophenyl butyrate assay. The conditions noted are these: IC50 (µM) ± SD, p-nitrophenyl butyrate substrate, 37°C.
Description: The inhibition of PL (from porcine pancreas; see Supporting Information) was assessed using previously described spectrophotometric methods [15, 16, 30]. […] Thus, a lower value indicates higher inhibitory activity.
The reactions were incubated at 37°C for 10 min. Then, the substrate p‐nitrophenyl butyrate (3.2 mM in H2O/DMF 70:30, 10 μL) was pipetted, and the microplate was incubated at 37°C for 30 min under moderate shaking.
The target of assay [10] is T7, hCA IX (Homo sapiens, UniProt Q16790).
T7 construct: made in house
In kind it is biochemical. The settings on record: read-out: K i hCA IX. The procedure:
as §1

T5 sequence (O43570 25-354): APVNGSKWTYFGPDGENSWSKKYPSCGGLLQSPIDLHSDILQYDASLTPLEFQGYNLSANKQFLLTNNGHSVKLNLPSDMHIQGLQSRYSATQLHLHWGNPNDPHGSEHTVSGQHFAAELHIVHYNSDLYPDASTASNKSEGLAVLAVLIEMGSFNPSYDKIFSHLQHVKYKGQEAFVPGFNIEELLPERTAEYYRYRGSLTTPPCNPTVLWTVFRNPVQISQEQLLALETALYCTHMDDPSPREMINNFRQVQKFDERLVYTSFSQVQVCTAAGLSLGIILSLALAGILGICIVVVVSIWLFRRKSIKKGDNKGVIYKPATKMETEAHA
T2 sequence (P35218 39-305): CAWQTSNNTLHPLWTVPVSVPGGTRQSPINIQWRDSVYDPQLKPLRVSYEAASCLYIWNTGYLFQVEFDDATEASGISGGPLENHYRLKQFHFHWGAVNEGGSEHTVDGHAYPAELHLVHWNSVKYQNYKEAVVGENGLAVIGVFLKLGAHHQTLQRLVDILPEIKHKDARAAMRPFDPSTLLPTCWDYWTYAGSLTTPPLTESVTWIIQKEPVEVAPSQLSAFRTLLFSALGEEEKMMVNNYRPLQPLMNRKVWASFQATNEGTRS
T6 sequence (Q9Y2D0 34-317): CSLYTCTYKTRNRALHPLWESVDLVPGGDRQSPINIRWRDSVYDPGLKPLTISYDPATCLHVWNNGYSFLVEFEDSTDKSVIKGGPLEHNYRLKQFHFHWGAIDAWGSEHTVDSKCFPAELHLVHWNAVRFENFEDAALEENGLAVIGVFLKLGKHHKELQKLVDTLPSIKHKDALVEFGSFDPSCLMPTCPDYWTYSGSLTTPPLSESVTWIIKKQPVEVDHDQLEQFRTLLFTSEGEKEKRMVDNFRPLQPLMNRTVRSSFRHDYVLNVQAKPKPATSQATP
T4 sequence (P00915 whole entry): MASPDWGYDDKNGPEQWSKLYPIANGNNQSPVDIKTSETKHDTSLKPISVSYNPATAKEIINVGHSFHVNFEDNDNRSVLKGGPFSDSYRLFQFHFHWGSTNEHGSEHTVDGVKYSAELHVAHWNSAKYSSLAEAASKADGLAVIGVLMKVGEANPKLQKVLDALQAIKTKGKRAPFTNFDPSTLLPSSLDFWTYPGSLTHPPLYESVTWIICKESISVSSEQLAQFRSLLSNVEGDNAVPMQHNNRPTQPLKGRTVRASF

Take `CCCCCCCCCCC[C@@H](C[C@@H]1OC(=O)[C@H]1CCCCCC)OC(=O)[C@H](CC(C)C)NC=O` [ORL, Orlistat]: the Inhibition mode entry in assay [1] is “Competitive”.

Turning to `O=C(/C=C/c1ccc(O)c2c1[C@H](C(=O)O)[C@@H](c1ccc(O)c(O)c1)O2)O[C@H](Cc1ccc(O)c(O)c1)C(=O)O` [LTS0059529, Lithospermic acid], the Ki was 0.69 ± 0.01 µM in [2]; greater than 100 µM in assay [3]; greater than 100 µM in assay [4]; 0.0048 ± 0.003 µM in [5]; 33.1 ± 1.6 µM in assay [7] (from slope of L-B plot lines versus inhibitor concentration); 0.6 ± 0.02 µM in assay [8]. For the same molecule, in [10], the Ki was determined as 0.31 ± 0.01 µM. Further, the “Inhibition ratio hCA VA versus hCA VB (VB more potently inhibited)” value in assay [6] is 1.15 fold. Besides, in assay [7] (Lineweaver-Burk plot), the Inhibition mode result was “competitively; also recorded: Competitive”. Also, in [7] (not affected by the competitive inhibitor), the “v max of the reaction” value came to 0.091 ± 0.002 mM/min. Besides, the concentration for half-maximal inhibition (IC50) in assay [9] is 5.4 µM and 5.45 µM.
